From PMC12679550 (ACS Chemical Neuroscience, 2025)
Where “and” joins values, the source holds several entries; their conditions need not be identical. Identical values can stand only once. Like-named read-outs stand apart in the source and are kept apart here.

How the values were obtained:
α2AR [1] = molecular target: T1, α2AR (Homo sapiens, UniProt P08913)
T1 sequence (P08913 1-465): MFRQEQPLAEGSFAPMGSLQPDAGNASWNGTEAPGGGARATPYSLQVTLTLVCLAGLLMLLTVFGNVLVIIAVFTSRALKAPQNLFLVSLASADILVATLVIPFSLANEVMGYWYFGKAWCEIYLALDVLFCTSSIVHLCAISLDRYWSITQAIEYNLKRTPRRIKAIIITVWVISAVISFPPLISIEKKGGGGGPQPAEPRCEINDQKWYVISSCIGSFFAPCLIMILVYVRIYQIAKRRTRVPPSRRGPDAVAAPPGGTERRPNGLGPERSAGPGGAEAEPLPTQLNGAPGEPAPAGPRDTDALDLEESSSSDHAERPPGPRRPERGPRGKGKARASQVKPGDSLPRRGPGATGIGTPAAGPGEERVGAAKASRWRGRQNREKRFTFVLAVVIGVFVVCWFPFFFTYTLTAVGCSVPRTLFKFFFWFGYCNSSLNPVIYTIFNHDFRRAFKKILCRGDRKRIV

rat α2AR [2] = molecular target: T2, rat α2AR (Rattus norvegicus, UniProt P22909); conditions: agonist mode; CHO-K1 cells
T2 sequence (P22909 1-465): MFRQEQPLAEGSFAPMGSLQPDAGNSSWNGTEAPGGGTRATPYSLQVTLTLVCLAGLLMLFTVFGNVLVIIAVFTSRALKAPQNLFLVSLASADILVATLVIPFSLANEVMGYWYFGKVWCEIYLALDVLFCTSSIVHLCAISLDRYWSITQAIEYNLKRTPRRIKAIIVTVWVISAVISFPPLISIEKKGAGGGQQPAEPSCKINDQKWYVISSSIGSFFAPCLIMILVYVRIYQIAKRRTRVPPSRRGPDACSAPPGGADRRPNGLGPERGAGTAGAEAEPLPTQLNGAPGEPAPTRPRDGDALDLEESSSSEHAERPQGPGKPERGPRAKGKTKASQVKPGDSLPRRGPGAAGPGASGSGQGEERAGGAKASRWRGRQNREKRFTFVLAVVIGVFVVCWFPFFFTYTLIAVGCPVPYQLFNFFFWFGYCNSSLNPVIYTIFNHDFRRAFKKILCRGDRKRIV

α2AR [3] = molecular target: T1, α2AR; remark: listed apart in the source
D2-dopamine receptors = molecular target: T3, D2-dopamine receptors (Homo sapiens, UniProt P14416); assay: Eurofins Cerep radioligand binding screen; conditions: 10 μM
T3 construct: Eurofins Cerep; host or cells: cell membrane homogenates
Experimental: (§1) The compounds were screened at each target once, in duplicate, at 100 nM and 10 μM. […] The assay was valid if the reliability criteria, K i or IC50 values within 1/2 Log of historical values, were met. Radioligand binding assay methods were as previously described with only minor modifications , (see table in Supplementary Figure S4 for radioligands, protein sources, and assay test conditions). Briefly, cell membrane homogenates were incubated with either an antagonist or agonist radioligand in the absence or presence of the test compound in a buffer. A specific unlabeled agonist or antagonist at the target determined nonspecific binding. Following incubation, the samples were filtered rapidly under vacuum through glass fiber filters presoaked in a buffer and rinsed several times with an ice-cold buffer using a 48-sample or 96-sample cell harvester. Using a scintillation cocktail, the filters were counted for radioactivity in a scintillation counter. Compound binding was calculated as a percent inhibition of the binding of the radioactively labeled ligand specific for each target. Preparatory methods for enzyme inhibition assays were similar to radioligand binding assays. These assays involved using a known substrate, stimulus, and/or tracer, and detection methods included LANCE, fluorimetry, photometry, luminescence, or scintillation counting (see table in Supplementary Figure S4). Results of the screening assays showing an inhibition or stimulation higher than 50% were designated “hits” and considered to represent significant effects of the test compounds.

D1-dopamine receptors = molecular target: T4, D1-dopamine receptors (Homo sapiens, UniProt P21728); assay: Eurofins Cerep radioligand binding screen; conditions: 10 μM
T4 construct: Eurofins Cerep; host or cells: cell membrane homogenates
Experimental: as §1

D3-dopamine receptors = molecular target: T5, D3-dopamine receptors (Homo sapiens, UniProt P35462); assay: Eurofins Cerep radioligand binding screen; conditions: 10 μM
T5 construct: Eurofins Cerep; host or cells: cell membrane homogenates
Experimental: as §1

hERG potassium channels = molecular target: T6, hERG potassium channels (Homo sapiens, UniProt Q12809); assay: Eurofins Cerep radioligand binding screen; conditions: 10 μM
T6 construct: Eurofins Cerep; host or cells: cell membrane homogenates
Experimental: as §1

β2-adrenoceptors = molecular target: T7, β2-adrenoceptors (Homo sapiens, UniProt P07550); assay: Eurofins Cerep radioligand binding screen; conditions: 10 μM
T7 construct: Eurofins Cerep; host or cells: cell membrane homogenates
Experimental: as §1

N-type Ca2+ channels = molecular target: T8, N-type Ca2+ channels (Rattus norvegicus, UniProt Q02294); assay: Eurofins Cerep radioligand binding screen; conditions: rat cerebral cortex; Figure S6
T8 construct: Eurofins Cerep (contract screen)
Experimental: as §1

serotonin transporter = molecular target: T9, serotonin transporter (Homo sapiens, UniProt P31645); assay: Eurofins Cerep radioligand binding screen; conditions: 10 μM
T9 construct: Eurofins Cerep; host or cells: cell membrane homogenates
Experimental: as §1

[4] = test system: voltage-gated sodium channels; assay: Eurofins Cerep radioligand binding screen; conditions: 10 μM
Experimental: as §1

L-type Ca2+ channels = assay: Eurofins Cerep radioligand binding screen; conditions: rat cerebral cortex; Figure S6
Experimental: as §1

rat α2AR [5] = molecular target: T2, rat α2AR; conditions: agonist mode; HEK293 cells; Figure S2
human α2BRs = human α2BRs (Homo sapiens, UniProt P18089); conditions: 10 μM screen
α1AR = molecular target: T10, α1AR (Homo sapiens, UniProt P35348)
T10 sequence (P35348 1-466): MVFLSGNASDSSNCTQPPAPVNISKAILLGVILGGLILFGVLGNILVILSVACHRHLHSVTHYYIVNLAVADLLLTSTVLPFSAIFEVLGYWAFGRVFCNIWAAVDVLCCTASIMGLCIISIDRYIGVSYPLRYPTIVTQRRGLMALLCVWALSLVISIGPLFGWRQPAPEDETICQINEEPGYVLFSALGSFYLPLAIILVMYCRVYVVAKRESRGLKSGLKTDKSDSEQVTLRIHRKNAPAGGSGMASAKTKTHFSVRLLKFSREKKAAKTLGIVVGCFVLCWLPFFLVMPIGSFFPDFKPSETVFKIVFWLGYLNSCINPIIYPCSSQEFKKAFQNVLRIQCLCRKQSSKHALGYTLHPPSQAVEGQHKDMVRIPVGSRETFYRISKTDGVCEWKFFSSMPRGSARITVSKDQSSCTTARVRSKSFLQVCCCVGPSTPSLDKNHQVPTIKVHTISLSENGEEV

[6] = male mice, 165 mg/kg PO; cited from earlier work

T6 sequence (Q12809 whole entry): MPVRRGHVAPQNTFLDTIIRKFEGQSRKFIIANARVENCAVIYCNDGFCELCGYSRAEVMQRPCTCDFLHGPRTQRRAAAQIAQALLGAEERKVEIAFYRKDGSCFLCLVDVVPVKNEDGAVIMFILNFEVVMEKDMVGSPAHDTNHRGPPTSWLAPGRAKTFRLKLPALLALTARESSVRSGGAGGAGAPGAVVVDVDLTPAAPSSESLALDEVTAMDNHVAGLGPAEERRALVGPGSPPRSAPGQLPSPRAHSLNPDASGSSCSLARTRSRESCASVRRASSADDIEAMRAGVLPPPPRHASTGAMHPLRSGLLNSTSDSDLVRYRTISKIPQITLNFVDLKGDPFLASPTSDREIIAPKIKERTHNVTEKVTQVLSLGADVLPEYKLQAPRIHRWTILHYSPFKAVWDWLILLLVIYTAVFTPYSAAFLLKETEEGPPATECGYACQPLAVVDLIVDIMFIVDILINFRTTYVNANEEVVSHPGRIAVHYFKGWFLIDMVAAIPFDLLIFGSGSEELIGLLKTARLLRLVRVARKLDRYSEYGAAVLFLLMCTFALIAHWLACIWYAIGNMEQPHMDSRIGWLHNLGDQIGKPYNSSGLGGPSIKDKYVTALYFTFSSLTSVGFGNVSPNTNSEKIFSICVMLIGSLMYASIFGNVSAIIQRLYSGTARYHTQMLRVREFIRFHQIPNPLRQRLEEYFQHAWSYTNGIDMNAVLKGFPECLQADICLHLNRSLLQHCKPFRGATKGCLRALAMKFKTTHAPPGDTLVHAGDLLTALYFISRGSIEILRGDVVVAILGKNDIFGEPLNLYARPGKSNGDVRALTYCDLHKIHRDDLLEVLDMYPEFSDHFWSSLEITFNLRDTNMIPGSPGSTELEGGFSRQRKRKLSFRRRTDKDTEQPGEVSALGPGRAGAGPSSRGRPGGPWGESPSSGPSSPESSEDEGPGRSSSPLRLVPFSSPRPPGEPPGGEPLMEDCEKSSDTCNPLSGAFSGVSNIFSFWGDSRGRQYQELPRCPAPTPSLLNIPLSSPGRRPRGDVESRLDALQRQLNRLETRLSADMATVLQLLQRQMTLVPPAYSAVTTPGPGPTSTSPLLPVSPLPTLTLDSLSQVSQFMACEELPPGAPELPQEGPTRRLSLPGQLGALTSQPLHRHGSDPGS
T4 sequence (P21728 whole entry): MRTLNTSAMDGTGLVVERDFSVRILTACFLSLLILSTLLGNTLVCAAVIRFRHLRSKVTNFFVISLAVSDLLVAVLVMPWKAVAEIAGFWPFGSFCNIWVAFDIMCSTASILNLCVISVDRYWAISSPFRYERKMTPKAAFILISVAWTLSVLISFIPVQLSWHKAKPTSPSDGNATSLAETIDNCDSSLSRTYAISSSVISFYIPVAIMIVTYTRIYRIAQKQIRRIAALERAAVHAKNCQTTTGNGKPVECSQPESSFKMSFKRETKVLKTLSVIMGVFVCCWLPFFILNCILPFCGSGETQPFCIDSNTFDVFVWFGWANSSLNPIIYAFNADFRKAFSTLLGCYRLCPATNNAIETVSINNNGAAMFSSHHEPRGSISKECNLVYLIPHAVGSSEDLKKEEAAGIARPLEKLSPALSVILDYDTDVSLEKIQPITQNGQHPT
T3 sequence (P14416 whole entry): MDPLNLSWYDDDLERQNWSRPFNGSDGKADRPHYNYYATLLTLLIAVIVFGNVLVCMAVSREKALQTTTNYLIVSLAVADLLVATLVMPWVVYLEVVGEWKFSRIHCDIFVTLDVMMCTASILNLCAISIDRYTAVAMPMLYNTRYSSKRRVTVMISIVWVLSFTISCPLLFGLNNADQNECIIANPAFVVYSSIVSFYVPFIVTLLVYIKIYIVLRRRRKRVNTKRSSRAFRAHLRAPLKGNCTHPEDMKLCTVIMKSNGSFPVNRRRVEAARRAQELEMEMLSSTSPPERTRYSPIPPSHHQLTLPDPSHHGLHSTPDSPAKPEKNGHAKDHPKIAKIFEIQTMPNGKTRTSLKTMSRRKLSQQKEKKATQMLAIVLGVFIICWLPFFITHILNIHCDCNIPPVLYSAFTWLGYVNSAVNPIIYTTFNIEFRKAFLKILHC
Chain of human α2BRs (P18089 whole entry): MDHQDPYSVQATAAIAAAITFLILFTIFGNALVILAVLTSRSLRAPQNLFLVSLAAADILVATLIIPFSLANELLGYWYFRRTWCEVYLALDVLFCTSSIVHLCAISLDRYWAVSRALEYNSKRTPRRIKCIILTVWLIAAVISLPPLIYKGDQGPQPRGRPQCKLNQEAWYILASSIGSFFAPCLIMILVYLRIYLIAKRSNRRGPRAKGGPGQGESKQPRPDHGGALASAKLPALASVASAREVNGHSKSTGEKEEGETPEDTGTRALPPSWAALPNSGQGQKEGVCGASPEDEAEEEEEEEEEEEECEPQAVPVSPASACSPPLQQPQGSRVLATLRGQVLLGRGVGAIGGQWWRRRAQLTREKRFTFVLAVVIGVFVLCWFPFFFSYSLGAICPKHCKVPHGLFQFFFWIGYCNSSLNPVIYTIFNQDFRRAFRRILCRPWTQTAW
T9 sequence (P31645 whole entry): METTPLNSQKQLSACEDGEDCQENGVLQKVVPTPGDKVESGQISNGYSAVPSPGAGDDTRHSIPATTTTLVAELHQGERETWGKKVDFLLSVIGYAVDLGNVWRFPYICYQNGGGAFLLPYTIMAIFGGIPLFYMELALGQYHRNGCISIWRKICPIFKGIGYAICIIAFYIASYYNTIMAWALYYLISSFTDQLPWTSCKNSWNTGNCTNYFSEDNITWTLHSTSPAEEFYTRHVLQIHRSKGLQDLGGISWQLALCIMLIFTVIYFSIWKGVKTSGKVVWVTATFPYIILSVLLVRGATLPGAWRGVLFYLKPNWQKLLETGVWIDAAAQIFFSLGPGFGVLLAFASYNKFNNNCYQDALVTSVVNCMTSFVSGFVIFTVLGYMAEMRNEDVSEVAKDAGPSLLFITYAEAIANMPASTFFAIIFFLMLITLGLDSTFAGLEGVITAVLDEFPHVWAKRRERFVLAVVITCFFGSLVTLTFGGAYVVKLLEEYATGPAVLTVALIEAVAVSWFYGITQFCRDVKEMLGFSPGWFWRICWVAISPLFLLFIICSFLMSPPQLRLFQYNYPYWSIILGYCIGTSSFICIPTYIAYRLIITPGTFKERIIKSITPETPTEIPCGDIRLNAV
T5 sequence (P35462 whole entry): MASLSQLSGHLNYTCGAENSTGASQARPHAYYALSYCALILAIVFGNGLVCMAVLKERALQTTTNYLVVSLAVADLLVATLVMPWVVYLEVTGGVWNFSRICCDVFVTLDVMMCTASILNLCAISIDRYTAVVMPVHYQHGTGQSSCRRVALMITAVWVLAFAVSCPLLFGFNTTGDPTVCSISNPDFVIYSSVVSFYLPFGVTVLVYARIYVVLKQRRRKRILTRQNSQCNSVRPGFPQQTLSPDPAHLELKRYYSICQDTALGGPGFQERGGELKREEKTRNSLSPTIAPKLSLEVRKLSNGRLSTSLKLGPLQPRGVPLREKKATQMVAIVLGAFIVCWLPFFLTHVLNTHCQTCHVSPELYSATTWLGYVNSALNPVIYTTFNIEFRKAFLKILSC

mitragynine
Kb (α2AR [1]; read-out: Kb, antagonist, β-arrestin, antagonist mode vs EC80 (0.01 μM) UK 14,304, Cheng–Prusoff): 5.01 µM | β-arrestin2 recruitment, agonist mode (α2AR [1]; α2AR-expressing CHO-K1 cells): did not recruit β-arrestin2 | Effect on forskolin-stimulated cAMP, rat α2AR (rat α2AR [2]): did not decrease forskolin-stimulated cAMP accumulation | Effect on forskolin-stimulated cAMP, human α2AR (α2AR [3]; agonist mode, CHO-K1 cells): did not impact forskolin-stimulated cAMP accumulation | Kb (α2AR [3]; read-out: Kb, antagonist, cAMP, human α2AR, antagonism of clonidine, Gaddum-Schild analysis of first plateau): 4.17 µM | Inhibition of radioligand binding, D2-dopamine receptors (D2-dopamine receptors): ~70% | Inhibition of radioligand binding, D1-dopamine receptors (D1-dopamine receptors): ~73% | Inhibition of radioligand binding, D3-dopamine receptors (D3-dopamine receptors): ~57% | Inhibition of radioligand binding, hERG potassium channels (hERG potassium channels): ~51% | Inhibition of specific radioligand binding, β2-adrenoceptors (β2-adrenoceptors): > 60% | Affinity at N-type Ca2+ channels (N-type Ca2+ channels): no appreciable affinity | Inhibition of radioligand binding, serotonin transporter (serotonin transporter): ~51% | Inhibition of radioligand binding, voltage-gated sodium channels [4]: ~71% | Affinity at L-type Ca2+ channels (L-type Ca2+ channels): no appreciable affinity | Effect on forskolin-induced cAMP, rat α2AR in HEK293 (rat α2AR [5]): no significant functional effects | Activation of Gαi/o subtypes coupled to α2BRs (human α2BRs): no significant activity | EC50 (α1AR; read-out: EC50, α11, α1AR-Gα11): 3.16 µM | EC50 (α1AR; read-out: EC50 at α1AR-Gα11 (abstract), partial agonist): ~3 µM | Emax as percent of clonidine's maximum response, α11 (α1AR; α1AR-Gα11): 27% | EC50, αq (α1AR; α1AR-Gαq): inactive | Peak brain concentration [6]: approximately 35 μg/g of wet brain tissue and ~88 μM
